Consider seven molecules from patent US10947252B2, “Inhibitors of KEAP1-Nrf2 protein-protein interaction” (Janssen Pharmaceutica NV, priority 2018, dated 2021).

For assay [1], the target named is Kelch domain of human KEAP1 (321-624 aa) (Homo sapiens (Human), UniProt Q14145). The experiment in a line: KEAP1 KELCH ThermoFluor binding assay.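 Note: Ligand-induced melting temperature shift of E. coli-expressed KEAP1 Kelch protein, Kd estimated from concentration-response curves of ΔTm.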 The settings on record: KEAP Kelch […], 1,8-ANS, pH 7.0, average of results obtained, read-out: Tf Kd.
Assay [2] has as its system Glo-Response ARE-luc2P HEK293 cell line. The experiment in a line: ARE luciferase reporter cell-based assay.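 Note: luciferase signal tracks Nrf2 activation of the ARE once compounds disrupt KEAP1-Nrf2 binding, read with One-Glo reagent, DMSO serving as low control.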 Conditions: Homo sapiens, HEK293, 24 h, average of results obtained.

Structures are written as SMILES.

Chain of Kelch domain of human KEAP1 (321-624 aa) (Q14145 321-624): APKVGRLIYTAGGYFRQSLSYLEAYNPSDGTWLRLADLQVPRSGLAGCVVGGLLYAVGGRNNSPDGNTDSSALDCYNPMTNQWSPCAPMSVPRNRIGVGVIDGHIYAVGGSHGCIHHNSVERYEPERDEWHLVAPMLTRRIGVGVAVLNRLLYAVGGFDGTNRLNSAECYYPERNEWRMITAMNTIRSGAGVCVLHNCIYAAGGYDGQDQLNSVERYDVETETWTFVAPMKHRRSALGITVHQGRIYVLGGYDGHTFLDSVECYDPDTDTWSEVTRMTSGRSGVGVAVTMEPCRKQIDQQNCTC

One may read the Kd as the equilibrium constant for the complex coming apart. The term EC50 denotes the midpoint of the concentration-response curve. Low readings indicate greater potency, high ones weaker potency. `CCn1nnc2c(C)c(C(CC(=O)O)c3ccc(C)c(CN4C[C@H]5CCCCN5c5ncccc5S4(=O)=O)n3)ccc21` (stereo in doubt) [Example 304, 3-(6-(((*R)-5,5-Dioxido-7,7a,8,9,10,11-hexahydro-6H-dipyrido[2,1-d:2′,3′-][1,2,5]thiadiazepin-6-yl)methyl)-5-methylpyridin-2-yl)-3-(1-ethyl-4-methyl-1H-benzo[d][1,2,3]triazol-5-yl)propanoic Acid]: the Kd in assay [1] was less than 1 nM. In assay [2], this molecule gave an EC50 of 2.9 nM.

With `Cc1ccc([C@H](CC(=O)O)c2ccn3c(C(F)(F)F)nnc3c2C)cc1CN1CC2CCCCN2c2ncc(C#N)cc2S1(=O)=O` (stereo in doubt) [Example 312, (*S)-3-(3-((3-Cyano-5,5-dioxido-7,7a,8,9,10,11-hexahydro-6H-dipyrido[2,1-d:2′,3′-f][1,2,5]thiadiazepin-6-yl)methyl)-4-methylphenyl)-3-(8-methyl-3-(trifluoromethyl)-[1,2,4]triazolo[4,3-a]pyridin-7-yl)propanoic Acid], the Kd in assay [1] was less than 1 nM. Moreover, the EC50 in assay [2] is 13.1 nM.

As to `Cc1ccc([C@H](c2ccn3c(C(F)(F)F)nnc3c2C)C(C)(C)C(=O)O)cc1CN1CC2(CCOCC2)Oc2nc(NC(C)CN3CCCCC3)c(C)cc2S1(=O)=O` (stereo in doubt) [Example 376, 3-(*R)-2,2-Dimethyl-3-(4-methyl-3-((8′-methyl-1′,1′-dioxido-7′-((1-piperidin-1-yl)propan-2-yl)amino)-2,3,5,6-tetrahydrospiro[pyran-4,4′-pyrido[2,3-b][1,4,5]oxathiazepin]-2′(3′H)-yl)methyl)phenyl)-3-(8-methyl-3-(trifluoromethyl)-[1,2,4]triazolo[4,3-a]pyridine-7-yl)propanoic Acid], in assay [1], the Kd is less than 1 nM. The same molecule yielded an EC50 in assay [2] of 57.3 nM.

As to `Cc1ccc(C(CC(=O)O)c2cc(OC3CC3)c3c(c2)nnn3C)cc1CN1C[C@H]2CCCCN2c2ncccc2S1(=O)=O` (stereo in doubt) [Example 403, 3-(7-Cyclopropoxy-1-methyl-1H-benzo[d][1,2,3]triazol-5-yl)-3-(3-(((*R)-5,5-dioxido-7,7a,8,9,10,11-hexahydro-6H-dipyrido[2,1-d:2′,3′-f][1,2,5]thiadiazepin-6-yl)methyl)-4-methylphenyl)propanoic Acid], the Kd in assay [1] is less than 1 nM. In assay [2], this molecule showed an EC50 of 20.8 nM.

As to `Cc1cc2cc(C(CC(=O)O)c3ccc(C)c(CN4C[C@H]5CCCCN5c5ncccc5S4(=O)=O)c3)n(C)c2nn1` (stereo in doubt) [Example 443, 3-(3,7-Dimethyl-7H-pyrrolo[2,3-c]pyridazin-6-yl)-3-(3-(((*R)-5,5-dioxido-7,7a,8,9,10,11-hexahydro-6H-dipyrido[2,1-d:2′,3′-f][1,2,5]thiadiazepin-6-yl)methyl)-4-methylphenyl)propanoic Acid], the Kd in assay [1] was less than 1 nM. In assay [2], this molecule yielded an EC50 of 1100 nM.

As for `Cc1ccc(C(CC(=O)O)c2ccn3c(C(F)F)nnc3c2C)cc1CN1C[C@@H]2CCCCN2c2ncccc2S1(=O)=O` (stereo in doubt) [Example 446, 3-(3-(Difluoromethyl)-8-methyl-[1,2,4]triazolo[4,3-a]pyridin-7-yl)-3-(3-(((*S)-5,5-dioxido-7,7a,8,9,10,11-hexahydro-6H-dipyrido[2,1-d:2′,3′-f][1,2,5]thiadiazepin-6-yl)methyl)-4-methylphenyl)propanoic Acid], the Kd in assay [1] was less than 1 nM. In assay [2], this molecule returned an EC50 of 23.8 nM.

In the case of `Cc1ccc(C(CC(=O)O)c2ccn3c(C(F)F)nnc3c2C)cc1CN1C[C@@H]2COCCN2c2ncccc2S1(=O)=O` (stereo in doubt) [Example 457, 3-(3-(Difluoromethyl)-8-methyl-[1,2,4]triazolo[4,3-a]pyridin-7-yl)-3-(3-(((*R)-5,5-dioxido-7a,8,10,11-tetrahydro-[1,4]oxazino[3,4-d]pyrido[2,3-f][1,2,5]thiadiazepin-6(7H)-yl)methyl)-4-methylphenyl)propanoic Acid], the Kd in assay [1] was found to be 1.02 nM. Besides, the midpoint of the response in assay [2], the EC50, lay at 479 nM.
